The test system of the test is M. tuberculosis BioA-TetON overexpression strain, growth inhibition. The test can be described thus: PubChem AID 743073. The conditions noted are these: for IC90: IC90 growth inhibition.

Active and inactive are the calls of the source. No rule for the calls is given here. Where only a bound is given, the exact number is not on record here.

What is called IC50 is the concentration that gives 50% inhibition. As usually defined, the IC90 is the point of the concentration-response curve where the effect stands at 90%. The low end stands for an effect from little substance, the high end for a need for much substance. As to `CC(=O)c1ccc(N2CCN(C(=O)c3ccc(F)cc3)CC2)cc1`, the IC50 was > 50 µM (inactive) and the IC90 is above 50 µM.

On to `CC(=O)c1ccc(N2CCN(C(=O)c3ccc4ncsc4c3)CC2)cc1`, for which the IC50 was > 50 µM (inactive) and the IC90 is above 50 µM.

As for `CC(=O)c1ccc(N2CCN(C(=O)c3ccc(Cl)cc3)CC2)cc1`, the IC50 is > 50 µM (inactive) and the 90% effect concentration (IC90) is above 50 µM.

For `O=C(Nc1ccc(Cl)cc1)c1cc2nc(C3CC3)cc(C(F)(F)F)n2n1`, the IC50 is > 50 µM (inactive) and the concentration for an effect of 90% (IC90) is above 50 µM.

As for `COc1ccc(NC(=O)N2CCN(c3ccccc3)CC2)cc1`, the IC50 was > 50 µM (inactive) and the 90% effect concentration (IC90) is above 50 µM.

`Cc1nc2cc(NC(=O)N3CCN(c4ccccc4)CC3)ccc2o1`: the 50% inhibitory concentration (IC50) was 50 µM and the 90% effect concentration (IC90) is above 50 µM.

For `O=C(c1ccc2c(c1)OCO2)N1CCN(c2ccc(F)cc2)CC1`, the IC50 was 28.3 µM and the IC90 was above 50 µM.

With `CC(=O)c1ccc(N2CCN(C(=O)c3ccccc3)CC2)cc1`, the IC50 is > 50 µM (inactive) and the 90% effect concentration (IC90) is above 50 µM.

Take `O=C(Nc1cccnc1)N1CCN(c2ccccc2)CC1`: the IC50 was > 50 µM (inactive) and the concentration for an effect of 90% (IC90) was above 50 µM.

With `CCc1ccc(C(=O)N2CCN(Cc3ccc4c(c3)OCO4)CC2)cc1`, the IC50 is 11.2 µM and the IC90 was 47.2 µM.

Take `O=C(COc1ccc2ccc(=O)oc2c1)N1CCN(c2ccc(F)cc2)CC1`: the IC50 is > 50 µM (inactive) and the IC90 was above 50 µM.

Turning to `CC(=O)c1ccc(N2CCN(C(=O)c3cccc(Cl)c3)CC2)cc1`, the IC50 is 44.3 µM (inactive) and the 90% effect concentration (IC90) was above 50 µM.

`Cc1nc2ccc(NC(=O)N3CCN(c4ccccc4)CC3)cc2s1`: the IC50 was 2.8 µM and the IC90 came to 23.6 µM.

As for `COc1cccc(NC(=O)CCC2CCN(C(=O)c3ccc(C(C)=O)s3)CC2)c1`, the IC50 is > 50 µM (inactive) and the IC90 was above 50 µM.

For `CC(C)(C)c1ccc(C(=O)N2CCN(c3ccc4c(c3)OCO4)CC2)cc1`, the IC50 was 13.1 µM and the IC90 is 36.9 µM.

As to `COc1ccc(N2CCN(C(=O)c3ccc4c(c3)OCO4)CC2)cc1`, the IC50 was 17.6 µM and the IC90 was above 50 µM.

For `O=C(Nc1ccc2snnc2c1)N1CCCCC1`, the 50% inhibitory concentration (IC50) is 50 µM and the IC90 is above 50 µM.

As to `COc1cc(/C=C/C(=O)Nc2cccnc2)cc(OC)c1OC`, the IC50 was > 50 µM (inactive) and the IC90 is above 50 µM.

Turning to `O=C(Nc1cccnc1)c1cnn2c(C(F)(F)F)cc(-c3ccccc3)nc12`, the IC50 was > 50 µM (inactive) and the concentration for an effect of 90% (IC90) was above 50 µM.

In the case of `O=C(Nc1ccccc1)N1CCN(c2ccccc2)CC1`, the 50% inhibitory concentration (IC50) was 9.9 µM and the IC90 is above 50 µM.

`CC(=O)c1ccc(N2CCN(C(=O)c3ccc4c(c3)OCO4)CC2)cc1`: the IC50 was 52 µM (inactive) and the 90% effect concentration (IC90) was above 50 µM.

For `CC(=O)c1ccc(N2CCN(C(=O)c3ccc(C)cc3)CC2)cc1`, the IC50 was > 50 µM (inactive) and the 90% effect concentration (IC90) is above 50 µM.

Turning to `CC(=O)c1ccc(N2CCN(C(=O)c3cccnc3)CC2)cc1`, the IC50 is > 50 µM (inactive) and the IC90 is above 50 µM.

As for `CC(=O)c1ccc(N2CCN(C(=O)c3ccc(Br)cc3)CC2)c(F)c1`, the IC50 was > 50 µM (inactive) and the IC90 was above 50 µM.

Regarding `O=C(Nc1cccnc1)c1cc2nc(-c3cccs3)cc(C(F)(F)F)n2n1`, the IC50 was > 50 µM (inactive) and the IC90 was above 50 µM.

With `COc1ccc(C(=O)N2CCN(c3ccc(C(C)=O)cc3)CC2)cc1`, the IC50 was > 50 µM (inactive) and the IC90 is above 50 µM.

Consider `O=C(c1ccc2c(c1)OCO2)N1CCN(c2ccccc2)CC1`, for which the concentration for half-maximal inhibition (IC50) was 24.4 µM and the IC90 was above 50 µM.

Turning to `Cc1cc(C)n2nc(C(=O)Nc3cccnc3)nc2n1`, the IC50 is > 50 µM (inactive) and the 90% effect concentration (IC90) is above 50 µM.

`Cc1ccccc1/C=C(\CCC(=O)O)c1nc2ccccc2s1`: the IC50 was 6.5 µM and the concentration for an effect of 90% (IC90) came out at 43.5 µM.

With `O=C(Nc1cccc(Cl)c1)N1CCN(c2ccccc2)CC1`, the half-inhibitory concentration (IC50) is 25.4 µM and the IC90 is above 50 µM.

As to `CC(=O)c1ccc(N2CCN(Cc3ccc4c(c3)OCO4)CC2)cc1`, the IC50 is > 50 µM (inactive) and the IC90 is above 50 µM.

As to `Cc1ccc(NC(=O)N2CCN(c3ccccc3)CC2)cc1`, the half-inhibitory concentration (IC50) is 50 µM and the IC90 is above 50 µM.

In the case of `O=C(Nc1ccncc1)c1cc2nc(C3CC3)cc(C(F)F)n2n1`, the IC50 is > 50 µM (inactive) and the IC90 is above 50 µM.

Consider `Cc1ccc(-c2cc(C(F)(F)F)n3nc(C(=O)Nc4cccnc4)cc3n2)cc1`, for which the IC50 was > 50 µM (inactive) and the concentration for an effect of 90% (IC90) is above 50 µM.

For `O=C(O)CC/C(=C\c1ccc([N+](=O)[O-])cc1)c1nc2ccccc2s1`, the IC50 was 8.3 µM and the IC90 came out at 34.3 µM.

On to `COc1cccc(C(=O)N2CCN(c3ccc(C(C)=O)cc3)CC2)c1`, for which the IC50 is > 50 µM (inactive) and the IC90 is above 50 µM.

Turning to `COc1cccc(NC(=O)N2CCN(c3ccccc3)CC2)c1`, the IC50 is 50 µM and the IC90 was above 50 µM.

In the case of `Cc1cc(C)n2nc(C(=O)Nc3cccnc3)cc2n1`, the IC50 is > 50 µM (inactive) and the IC90 is above 50 µM.

Consider `CCN(CC)c1ccc2cc(C(=O)c3cccs3)c(=O)oc2c1`, for which the IC50 is 6.4 µM and the concentration for an effect of 90% (IC90) was above 50 µM.

Turning to `O=C(Nc1ccc2snnc2c1)N1CCN(c2ccccc2)CC1`, the IC50 was > 50 µM (inactive) and the IC90 was above 50 µM.

Take `CCOC(=O)N1CCN(C(=O)Nc2ccc3snnc3c2)CC1`: the IC50 is > 50 µM (inactive) and the IC90 was above 50 µM.

For the molecule `COc1ccc(-c2cc(C(F)(F)F)n3nc(C(=O)Nc4cccnc4)cc3n2)cc1`, the IC50 was > 50 µM (inactive) and the concentration for an effect of 90% (IC90) was above 50 µM.

Take `O=C(O)CC/C(=C\c1ccccc1[N+](=O)[O-])c1nc2ccccc2s1`: the IC50 is > 50 µM (inactive) and the 90% effect concentration (IC90) was above 50 µM.

Take `CC(=O)c1ccc(N2CCN(C(=O)c3cccc(F)c3)CC2)cc1`: the IC50 is > 50 µM (inactive) and the IC90 was above 50 µM.

With `Cc1cccc(/C=C(\CCC(=O)O)c2nc3ccccc3s2)c1`, the IC50 was 3.1 µM and the IC90 was determined as 9 µM.

For the molecule `O=C(c1ccc2c(c1)OCO2)N1CCN(Cc2ccccc2)CC1`, the IC50 was > 50 µM (inactive) and the IC90 is above 50 µM.

In the case of `O=C(Nc1ccc(Cl)c(-c2nc3ccccc3[nH]2)c1)c1cccnc1`, the 50% inhibitory concentration (IC50) was 10.3 µM and the IC90 is 39.5 µM.

For `O=C(c1ccc2c(c1)OCO2)N1CCN(c2ccc(Cl)cc2)CC1`, the IC50 was 11.6 µM and the 90% effect concentration (IC90) is 47.2 µM.

For the molecule `COC(=O)c1c(C(=O)OC)c(-c2cccc(F)c2)n2c1CS(=O)C2` (stereo not given), the IC50 is > 50 µM (inactive) and the concentration for an effect of 90% (IC90) was above 50 µM.

Consider `Cc1ccc(/C=C(\CCC(=O)O)c2nc3ccccc3s2)cc1[N+](=O)[O-]`, for which the IC50 was 1.5 µM and the IC90 stood at 4.7 µM.

For `Cc1ccc(/C=C(\CC(=O)O)c2nc3ccccc3s2)cc1[N+](=O)[O-]`, the IC50 is 11.7 µM and the IC90 is above 50 µM.

With `O=C(Nc1ccc2snnc2c1)N1CCOCC1`, the IC50 was > 50 µM (inactive) and the IC90 is above 50 µM.

Turning to `O=C(Nc1cccnc1)c1cnn2c(C(F)F)cc(C3CC3)nc12`, the IC50 was > 50 µM (inactive) and the IC90 is above 50 µM.

`Cc1ccc(/C=C(\CCCC(=O)O)c2nc3ccccc3s2)cc1[N+](=O)[O-]`: the concentration for half-maximal inhibition (IC50) was 5.6 µM and the IC90 was above 50 µM.

Turning to `Cc1ccc(/C=C(\CCC(=O)O)c2nc3ccccc3s2)cc1`, the IC50 was 1.7 µM and the IC90 was found to be 5.8 µM.

Regarding `CC(=O)c1ccc(N2CCN(C(=O)c3ccc4c(c3)OCCO4)CC2)cc1`, the IC50 is > 50 µM (inactive) and the IC90 was above 50 µM.

Regarding `O=C(Nc1ccc2[nH]ccc2c1)N1CCN(c2ccccc2)CC1`, the IC50 was 7 µM and the IC90 was above 50 µM.

As for `CCc1ccc(N2CCN(C(=O)c3ccc4c(c3)OCO4)CC2)cc1`, the IC50 is 16.1 µM and the IC90 is above 50 µM.

Consider `O=C(Nc1ccc(F)cc1)N1CCN(c2ccccc2)CC1`, for which the IC50 is 19.3 µM and the IC90 is above 50 µM.

As for `O=C(Nc1cccc(F)c1)N1CCN(c2ccccc2)CC1`, the IC50 was 12.8 µM and the IC90 was above 50 µM.

These data come from PubChem BioAssay AID743073 (Broad Institute, 2013).
